Source: ChEMBL document CHEMBL1201862, “PubChem BioAssay data set” (2004)
Calls of active or inactive are those of the source. For most assays here, no stated cut-off is given here; in the data, actives have a measured EC50 and inactives only a lower limit.

Tests used:
Cytochrome P450 1A2 = biological target: T1, Cytochrome P450 1A2 (Homo sapiens, UniProt P05177);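 further: PubChem cytochrome P450 panel assay, CYP1A2 panel member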
T1 sequence (P05177 whole entry): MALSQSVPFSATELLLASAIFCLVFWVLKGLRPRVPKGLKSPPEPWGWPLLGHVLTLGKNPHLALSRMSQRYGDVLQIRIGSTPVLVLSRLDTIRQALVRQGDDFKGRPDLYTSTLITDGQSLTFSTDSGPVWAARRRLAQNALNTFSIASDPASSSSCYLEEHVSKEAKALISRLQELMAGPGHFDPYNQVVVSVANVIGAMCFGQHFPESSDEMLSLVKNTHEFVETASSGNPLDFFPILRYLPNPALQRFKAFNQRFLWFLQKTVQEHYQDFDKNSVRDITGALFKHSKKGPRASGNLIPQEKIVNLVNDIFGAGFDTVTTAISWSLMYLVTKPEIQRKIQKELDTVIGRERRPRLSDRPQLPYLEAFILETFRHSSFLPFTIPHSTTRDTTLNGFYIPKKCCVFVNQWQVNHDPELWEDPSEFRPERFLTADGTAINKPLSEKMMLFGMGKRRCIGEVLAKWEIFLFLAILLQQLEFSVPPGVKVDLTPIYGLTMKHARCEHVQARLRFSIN

Cytochrome P450 3A4 = Cytochrome P450 3A4 (Homo sapiens, UniProt P08684);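 further: CYP3A4 tested as one member of a cytochrome P450 panel screen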
Chain of Cytochrome P450 3A4 (P08684 whole entry): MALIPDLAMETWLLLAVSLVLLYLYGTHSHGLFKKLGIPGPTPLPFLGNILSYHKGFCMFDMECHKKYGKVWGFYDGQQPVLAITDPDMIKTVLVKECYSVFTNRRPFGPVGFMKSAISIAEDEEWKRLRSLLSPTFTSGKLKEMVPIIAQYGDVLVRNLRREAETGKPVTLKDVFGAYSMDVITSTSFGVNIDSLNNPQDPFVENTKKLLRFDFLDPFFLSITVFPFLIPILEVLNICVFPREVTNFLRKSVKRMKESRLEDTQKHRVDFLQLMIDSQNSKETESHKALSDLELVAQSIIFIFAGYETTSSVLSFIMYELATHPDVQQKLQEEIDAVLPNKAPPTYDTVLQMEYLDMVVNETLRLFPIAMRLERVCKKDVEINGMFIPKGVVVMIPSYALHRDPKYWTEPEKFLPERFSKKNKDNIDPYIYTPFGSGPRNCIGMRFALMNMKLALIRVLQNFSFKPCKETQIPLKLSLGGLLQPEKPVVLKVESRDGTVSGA

Cytochrome P450 2C9 = Cytochrome P450 2C9 (Homo sapiens, UniProt P11712)
Chain of Cytochrome P450 2C9 (P11712 whole entry): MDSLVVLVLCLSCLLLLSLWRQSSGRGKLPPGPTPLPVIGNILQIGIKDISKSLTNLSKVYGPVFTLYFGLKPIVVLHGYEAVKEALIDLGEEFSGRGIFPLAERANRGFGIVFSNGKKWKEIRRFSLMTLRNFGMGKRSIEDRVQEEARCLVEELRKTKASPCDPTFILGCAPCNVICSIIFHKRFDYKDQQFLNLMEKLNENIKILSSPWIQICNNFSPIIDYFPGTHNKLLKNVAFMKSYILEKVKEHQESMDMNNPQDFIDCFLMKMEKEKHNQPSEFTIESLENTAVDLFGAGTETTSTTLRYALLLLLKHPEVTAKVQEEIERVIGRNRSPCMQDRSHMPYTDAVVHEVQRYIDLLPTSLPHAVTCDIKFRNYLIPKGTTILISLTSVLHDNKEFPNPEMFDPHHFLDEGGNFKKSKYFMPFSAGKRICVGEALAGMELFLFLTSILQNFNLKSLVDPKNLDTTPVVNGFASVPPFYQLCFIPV

[1] = Luminescence Cell-Based Dose Confirmation HTS to Identify Activators of 5'UTR Stem-Loop Driven Alpha-Synuclein mRNA Translation in H4 Neuroglioblastoma Cells. [Related pubchem assays: 1829 (Project Summary), 1814 (Primary HTS)]; type: functional
[2] = Luminescence Cell-Based Dose Response HTS to Identify Activators of Luciferase Translation or Activity in H4 […] Cells. [Related pubchem assays: 1829 (Project Summary), 1814 (Primary HTS)]; type: functional
H4 = assay: Luminescence Cell-Based Dose Response HTS to Identify Activators of 5'UTR Stem-Loop Driven Prion Protein mRNA Translation in H4 Neuroglioblastoma Cells. [Related pubchem assays: 1829 (Project Summary), 1814 (Primary HTS)]; type: functional; details: Homo sapiens
[3] = Luminescence Cell-Based Dose Retest to Confirm Inhibitors of Cancer Stem Cells. [Related pubchem assays (depositor defined):AID2717, AID2721]; type: functional; details: Homo sapiens
[4] = system: Streptococcus sp. 'group A'; assay: Streptococcus pyogenes SK(-)GAS viability under kanamycin – luminescence, BacTiterGlo, confirmation, counter-screen for streptokinase expression inhibitor project, dose response (AID 1900); type: functional, organism-based
Streptococcus = assay: GAS UMAA2166 growth inhibition – luminescence, BacTiterGlo, counter-screen for streptokinase expression inhibitor project, dose response (AID 1915); type: functional, organism-based;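 further: potency for reduction of bacterial viability or growth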
Streptokinase A = biological target: T2, Streptokinase A (Streptococcus pyogenes serotype M1, UniProt P10520); assay: viability-normalized secreted streptokinase activity reduction – plasminogen activation absorbance, OD405, dose response (AID 1914); type: functional, Streptococcus pyogenes M1 GAS;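 further: secreted streptokinase activity via plasminogen activation per viability signal from cell pellet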
T2 sequence (P10520 whole entry): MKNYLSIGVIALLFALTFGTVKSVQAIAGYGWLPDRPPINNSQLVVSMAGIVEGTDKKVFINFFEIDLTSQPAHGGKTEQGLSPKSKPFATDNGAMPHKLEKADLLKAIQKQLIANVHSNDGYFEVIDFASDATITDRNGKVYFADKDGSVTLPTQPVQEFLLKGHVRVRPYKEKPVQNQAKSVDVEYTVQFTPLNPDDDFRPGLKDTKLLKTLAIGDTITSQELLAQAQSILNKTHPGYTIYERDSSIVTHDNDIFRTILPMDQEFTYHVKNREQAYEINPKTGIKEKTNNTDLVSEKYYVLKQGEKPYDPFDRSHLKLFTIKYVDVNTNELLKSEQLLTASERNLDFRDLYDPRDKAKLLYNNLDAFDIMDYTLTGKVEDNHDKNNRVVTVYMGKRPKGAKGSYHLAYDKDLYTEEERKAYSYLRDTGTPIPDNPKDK

[5] = Trypanosoma cruzi growth suppression in host cells – NIH3T3 host cells, beta-gal luminescence, confirmation (AID 2044); type: functional, cell-based;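 further: intracellular parasites grown in NIH/3T3 mouse fibroblasts as host cells; luminescent beta-galactosidase reporter signal from transgenic T. cruzi replicating inside host cells; inhibitors lower the luminescence signal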
[6] = NIH3T3 cell viability loss – ATP luminescence, mouse fibroblasts, counter-screen, dose response (AID 2010); type: functional, cell-based;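 further: cells exposed to compound for about 90 hours before reading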

N[C@@H](Cn1cc(F)c(=O)[nH]c1=O)C(=O)O
AC50 (Cytochrome P450 1A2): 31.6 µM (inconclusive)

COc1ccc(N=C(S)Nc2ncccc2C)c(OC)c1
AC50 (Cytochrome P450 3A4): 39.8 µM (inconclusive)
AC50 (Cytochrome P450 2C9): 20 µM (inconclusive)

Nc1nonc1-c1noc(CCCN2C(=O)c3ccccc3C2=O)n1
EC50 [1]: 12.9 µM (active)
EC50 [2]: 12.1 µM (active)
EC50 (H4): 15.7 µM (active)

CC(c1ccon1)N(C)Cc1c[nH]nc1-c1ccc(-c2ccccc2)cc1 (centres undefined)
EC50 [1]: > 120 µM (not active)
EC50 [2]: 30.5 µM (active)
EC50 (H4): > 120 µM (not active)

O=C(c1cnn2c1NC(c1ccc(Br)cc1)CC2C(F)(F)F)N1CCN2CCCC2C1 (centres undefined)
AC50 [3]: 1.81 µM (active)

CCc1nnc(NC(=O)/C=C/c2ccco2)s1
EC50 [1]: 13.7 µM (active)
EC50 [2]: 54.5 µM (active)
EC50 (H4): 6.44 µM (active)

CC1CNC(=Nc2cccc3ccccc23)S1 (centres undefined)
AC50 (Cytochrome P450 3A4): 15.8 µM (inconclusive)
AC50 (Cytochrome P450 2C9): 14.1 µM (inconclusive)

COc1cc(/C=C/C(=O)OCC(=O)c2c(N)n(C)c(=O)n(C)c2=O)ccc1OCC#N
EC50 [4]: 7.23 µM (active)
EC50 (Streptococcus): 4.1 µM (active)

Cc1nn(C(C)C(=O)N2CCc3ccccc32)c(C)c1[N+](=O)[O-] (centres undefined)
AC50 (Cytochrome P450 3A4): 17.8 µM (inconclusive)

O=C(Nc1ccc2c(c1)OCO2)N1CCN(c2ccccc2)CC1
EC50 [1]: > 120 µM (not active)
EC50 [2]: 16.2 µM (active)
EC50 (H4): 10.3 µM (active)

C=CCn1c(SCc2ccccc2)nc2scc(-c3ccc(C)o3)c2c1=O
AC50 (Cytochrome P450 1A2): 1.58 µM (inconclusive)

COC(=O)[C@@]1(Cc2ccccc2)[C@H]2c3cc(C(=O)N4CCCC4)n(Cc4nc5ccccc5[nH]4)c3C[C@H]2CN1C(=O)c1ccccc1
AC50 (Cytochrome P450 1A2): 12.6 µM (inconclusive)

Cc1ccc2c(c1)/C(=C1\SC(N(C)c3ccc(O)cc3)=NC1=O)C(=O)N2
EC50 [4]: 6.59 µM (active)
EC50 (Streptokinase A): > 150 µM (not active)
EC50 (Streptococcus): 16.6 µM (active)

O=C(Nc1cccc(Cl)c1N1CCCC1)c1cc2ccccc2o1
EC50 [4]: 8.81 µM (active)
EC50 (Streptokinase A): 14.3 µM (active)
EC50 (Streptococcus): 20.5 µM (active)

N=C1/C(=C\c2ccc(OC(=O)c3ccccc3Cl)cc2)C(=O)N=C2SC(N3CCOCC3)=NN12
EC50 [4]: 37.8 µM (active)
EC50 (Streptokinase A): > 150 µM (not active)
EC50 (Streptococcus): > 150 µM (not active)

CCOC(=O)Cc1cc(-c2ccc(OC)cc2)nc2ccc3ccccc3c12
EC50 [1]: 9.64 µM (active)
EC50 [2]: 12.6 µM (active)
EC50 (H4): 15.6 µM (active)

O=C(O)CCSc1ccc([N+](=O)[O-])cc1[N+](=O)[O-]
EC50 (Streptokinase A): > 150 µM (not active)
EC50 (Streptococcus): > 150 µM (not active)

COc1cccc(-c2coc3cc4oc(=O)c(CCC(=O)O)c(C)c4cc23)c1
EC50 [4]: 5.51 µM (active)
EC50 (Streptokinase A): > 150 µM (not active)
EC50 (Streptococcus): 48.5 µM (active)

Cc1cc(NC(=O)CSc2nc3ccsc3c(=O)n2Cc2ccccn2)[nH]n1
AC50 (Cytochrome P450 1A2): 6.31 µM (inconclusive)

COC(=O)c1ccc(N2OC3(C)C=CC2CC3)cc1 (centres undefined)
EC50 [1]: 9.96 µM (active)
EC50 [2]: 5.16 µM (active)
EC50 (H4): 13.5 µM (active)

O=C(CCOc1ccccc1)Nc1ccccc1
AC50 (Cytochrome P450 3A4): 22.4 µM (inconclusive)
AC50 (Cytochrome P450 2C9): 1 µM (inconclusive)

COc1ccccc1C(=O)NNC(=O)C(=O)Nc1cccc(Cl)c1C
EC50 [4]: 3.78 µM (active)
EC50 (Streptokinase A): > 150 µM (not active)
EC50 (Streptococcus): 16 µM (active)

COc1ccc(-c2sc3cc(OC)c(OC)cc3c2C#CC2(O)CCCCC2)cc1
AC50 [3]: 1.73 µM (active)

Cc1ccc(CN2C(=O)N/C(=C/c3cc(C)n(-c4ccccn4)c3C)C2=O)cc1
EC50 [1]: 11.9 µM (active)
EC50 [2]: 7.26 µM (active)
EC50 (H4): > 120 µM (not active)

O=C(/C=C/c1ccc(Br)cc1)NC1CCCCCC1
AC50 (Cytochrome P450 1A2): 2 µM (inconclusive)

O=C(O)CCCN1C(=O)/C(=C/c2cn(-c3ccccc3)nc2-c2cccs2)SC1=S
EC50 [4]: 5.9 µM (active)
EC50 (Streptokinase A): > 150 µM (not active)
EC50 (Streptococcus): 7.28 µM (active)

O=C(c1csnn1)N1CCC2(CCCN(Cc3cc(C(F)(F)F)cc(C(F)(F)F)c3)C2)CC1
AC50 (Cytochrome P450 1A2): 12.6 µM (inconclusive)
AC50 (Cytochrome P450 2C9): 39.8 µM (inconclusive)

Cc1ncc(CC(=O)n2cc(C(=O)c3cc(Cl)ccc3O)cn2)s1
EC50 [1]: 16.5 µM (active)
EC50 [2]: > 120 µM (not active)
EC50 (H4): 40.2 µM (active)

S=c1[nH]cnc2scc(-c3ccc(Cl)cc3)c12
EC50 (Streptokinase A): > 150 µM (not active)

Sc1ncnc2scc(-c3ccc(Cl)cc3)c12
EC50 [4]: 13.1 µM (active)
EC50 (Streptococcus): 47.4 µM (active)

CC1CCN(c2ccccc2NC(=O)c2ccc(Br)o2)CC1
EC50 [4]: 5.4 µM (active)
EC50 (Streptokinase A): 43.6 µM (active)
EC50 (Streptococcus): 10.3 µM (active)

O=C(Nc1ccc2c[nH]nc2c1)c1ccc(Cl)c(S(=O)(=O)N2CCOCC2)c1
EC50 [1]: 6.56 µM (active)
EC50 [2]: 42.2 µM (active)
EC50 (H4): 27.6 µM (active)

O=C(Nc1ccc(-c2csc(-c3ccccc3)n2)cc1)c1ccccc1Cl
EC50 [5]: 1.57 µM (active)
EC50 [6]: 9.89 µM (active)
AC50 (Cytochrome P450 1A2): 0.0708 µM (inconclusive)

O=[N+]([O-])c1ccccc1-c1ccc(C(=S)N2CCN(c3ccccc3)CC2)o1
AC50 [3]: > 195 µM (inactive)

COc1cc(OC)cc(C(=O)NCCNc2nc3cc(C)cc(C)c3cc2C#N)c1
AC50 [3]: > 195 µM (inactive)

O=C(Nc1ncc(Cc2cccc([N+](=O)[O-])c2)s1)c1ccco1
AC50 [3]: 1.4 µM (active)

COc1ccc(C(=O)C2=C(O)C(=O)N(c3cc(C)on3)C2c2ccc(OC)c(OC)c2)cc1OC (centres undefined)
AC50 (Cytochrome P450 3A4): 22.4 µM (inconclusive)

COc1ccc2nc(N3CCN(C(=O)C4COc5ccccc5O4)CC3)sc2c1 (centres undefined)
EC50 [1]: 4.45 µM (active)
EC50 [2]: 30.7 µM (active)
EC50 (H4): 12.8 µM (active)

C[C@@H](CSc1ccc(Br)cc1)CN1CC[C@H](NC(=O)OCc2ccccc2)CCC1=O
AC50 [3]: 5.92 µM (active)

CCC(COC(=O)NC)NC(=O)Oc1ccccc1 (centres undefined)
AC50 (Cytochrome P450 1A2): 39.8 µM (inconclusive)

COc1ccc(-c2sc3cc4c(cc3c2-c2ccc(OCCN3CCOCC3)cc2)OCO4)cc1
AC50 [3]: 0.29 µM (active)

CC1=C(C#N)C(Nc2ccc(Cl)cn2)(C(F)(F)F)C(=O)N1 (centres undefined)
AC50 (Cytochrome P450 3A4): 15.8 µM (inconclusive)

COc1cc(OC)cc(-c2sc3ccc(OC)cc3c2C#CCO)c1
AC50 [3]: 4.83 µM (active)

Cc1cc(C(C)(C)C)c(OC(=O)[C@@H]2OC(c3ccccc3)=C[C@H]2c2ccccc2)c(C(C)(C)C)c1
AC50 [3]: 5.03 µM (active)

CCCS(=O)(=O)N1CCCC(C(=O)N2CCOCC2)C1 (centres undefined)
AC50 (Cytochrome P450 1A2): 5.01 µM (inconclusive)

O=C(Nc1ccc(Cl)cc1C(=O)c1ccccc1Cl)c1ccco1
AC50 (Cytochrome P450 1A2): 2.51 µM (inconclusive)

O=C(O)c1cc2c(cc1S(=O)(=O)O)[C@H]1[C@@H](C3[C@H]2[C@@]2(Cl)C(Cl)=C(Cl)[C@@]3(Cl)C2(Cl)Cl)[C@]2(Cl)C(Cl)=C(Cl)[C@]1(Cl)C2(Cl)Cl (some centres undefined)
AC50 (Cytochrome P450 3A4): 3.16 µM (inconclusive)

C/C(=N/NC(=O)c1ccc(-c2ccccc2)cc1)c1cc(O)cc(O)c1
AC50 [3]: 2.97 µM (active)

COC(=O)c1ccc(-c2ccc(/C=N/N3C(=O)C4C5C=CC(CC5)C4C3=O)o2)cc1 (centres undefined)
EC50 [1]: 6.71 µM (active)
EC50 [2]: 19.5 µM (active)
EC50 (H4): 18.9 µM (active)

C/C(=N\NS(=O)(=O)c1ccc(C)cc1)c1ccc(C)o1
EC50 [4]: > 150 µM (not active)
EC50 (Streptokinase A): > 150 µM (not active)
EC50 (Streptococcus): > 150 µM (not active)

COc1cc(C=C(C#N)C#N)cc(O)c1O
AC50 (Cytochrome P450 3A4): 10 µM (inconclusive)

CN1CCc2cc(Cl)c(O)cc2[C@@H](c2ccccc2)C1 [SCH-23390]
AC50 (Cytochrome P450 1A2): 39.8 µM (inconclusive)
